Tests used:
[1] = tested on: ATP binding domain of IDBP; test: 25-OHD3 binding activity of cells transfected with construct encoding the IDBP ATP binding domain; parameters: species or system Callithrix jacchus (common marmoset); conditions: COS-7 and OMK gibbon cells transfected with ATP binding domain construct
Description: This experiment was repeated with expression plasmids which encode different fragments of IDBP. The coding region of the cDNA contains a convenient Eco RI restriction site which divides the region encoding the deduced ATP binding from the deduced peptide binding domain and variable domain.

IDBP(s) = test: Specific binding of [3H]25-OHD3 and [3H]17β-estradiol in post-hydroxyapatite peak I and peak II fractions of B95-8 extract; parameters: species or system Callithrix jacchus (common marmoset); conditions: both peak I and peak II from hydroxyapatite chromatography; tracer ± 100 nM radioinert ligand
Procedure: (§1) Briefly, unfractionated or post-FPLC fractions were incubated in ETD-0.5 M NaCl overnight at 4° C. with 4 nM [3H]25-OHD3 in the presence or absence of 1-100 nM unlabeled competitive ligand. Protein-bound [^3 H]25-OHD3 was separated from unbound sterol by incubation with dextran-coated charcoal. Specifically-bound 25-OHD3 was determined by subtracting the mean of duplicate determinations of binding in the presence of 100 nM radioinert competitive ligand from the mean of determinations of binding in the absence of added competitive ligand. Specific binding of 17β-[^3 H]estradiol as well as [^3 H]25-OHD3 to IDBP(s) was also determined in individual fractions eluting from hydroxyapatite chromatography. The binding assay conditions were the same as those stated above except that specific binding was determined in ETD-0.3 M Na2 HPO4 buffer (pH 6.8).
On the basis of protein recovery, enrichment of bioactivity, ease of use, and resin available for FPLC and/or HPLC applications, three chromatographic supports, one each from the three different kinds of packing materials evaluated, were selected for serial chromatographic purification of IDBP(s): BPS-DE cellulose for anion exchange chromatography, phenyl sepharose (mid sub) for hydrophobic interaction chromatography, and HTP-hydroxyapatite for separation of proteins by their surface charge. […]

[2] = molecular target: T1, human heat shock protein-70 (hsp70) (Homo sapiens, UniProt P0DMV8); test: Competitive ligand binding of [3H]25-hydroxyvitamin D3 to recombinant inducibly-expressed hsp70
T1 construct: purchased StressGen, Victoria, B.C., Canada
Procedure: (§2) Ligand Binding Analyses. The ability of the unfractionated 100,000×g supernatant extracts of B95-8 cells and individual column fractions of chromatographically-purified material to bind [^3 H]25-OHD3 in the presence or absence of increasing concentrations of radioinert compounds (see Table I) was performed by competitive protein binding assay as previously described in Gacad et al. Bone Min. Res. 8:27-35 (1993).
as §1
Inducibly-expressed, recombinant human heat shock protein-70 (hsp70) was purchased from StressGen, Victoria, B.C., Canada. […]

IDBP [3] = molecular target: T2, IDBP (Saguinus oedipus, UniProt Q9N1U2); test: 25-OHD3 binding activity of cells transiently transfected with plasmid expressing the IDBP coding region; parameters: species or system Callithrix jacchus (common marmoset)
Description: The coding region of IDBP shown in FIG. 3 was cloned into pcDNA3.1 (Invitrogen). […] Control plasmid was the pcDNA3.1 vector without cloned insert.

IDBP [4] = molecular target: T2, IDBP; test: Competitive displacement of [3H]25-OHD3 from IDBP in unfractionated 100,000×g supernatant extracts of B95-8 cells (competitive protein binding assay, dextran-coated charcoal); parameters: post-nuclear 100,000xg supernatant of B95-8 marmoset lymphoblasts and partly purified column fractions; species or system Callithrix jacchus (common marmoset); conditions: for ability to competitively displace [3H]25-OHD3 binding (FIG. 1A): 100 nM competitor, 2 nM [3H]25-OHD3; for RBI (Relative Binding Index): relative ability of maximally effective concentration to displace [3H]25-OHD3, 25-OHD3 assigned 100, unfractionated 100,000×g supernatant of B95-8 cells
Description: Culture and Extraction of B95-8 Cells. The B-lymphoblastoid cell line B95-8 was obtained from the American Type Culture Collection (ATCC, Manassas, Va.). This cell line was established by EBV transformation of blood leukocytes from the vitamin D-resistant new world primate, Callithrix jacchus (common marmoset). The cell line was maintained in RPMI-1640 medium (Irvine Scientific, Irvine, Calif.) routinely supplemented with 10% fetal calf serum (FCS; Gemini BioProducts, Calabasas, Calif.), 100 units/ml penicillin, 100 μg/ml streptomycin, 2 mM L-glutamine (both from Gibco-BRL, Grand Island, N.Y.) in an atmosphere of 95% air-5% CO2.
Confluent cultures were harvested by agitation to dislodge clumps of lymphoblasts that were weakly adherent to the plastic flask. Harvested cells were pelleted and washed twice in ice cold phosphate-buffered saline (PBS; 20 mM Na2 HPO4 and 150 mM NaCl, pH 7.2). The pelleted cells were then resuspended in ETD buffer (1 mM EDTA, 10 mM Tris-HCl, 5 mM dithiothreitol, pH 7.4) containing 1 mM phenylmethylsulfonylflouride and homogenized by Polytron on ice in five 15-second bursts. Nuclei with associated nuclear steroid receptor proteins, were pelleted at 4,000×g for 30 minutes at 4° C. The post-nuclear supernatant of this spin was then subjected to high-speed centrifugation at 100,000×g for 1 hour at 4° C. The resulting "100,000×g supernatant" was either aliquoted and stored at […] for further study, used in competitive ligand binding analyses, or subjected to further purification as described below in Example II.
as §2, with “fractions of chromatographically-purified material to bind [^3 H]25-OHD3 in the presence or absence” left out
[…] […] […] […] The binding assay conditions were the same as those stated above except that specific binding was determined in ETD-0.3 M Na2 HPO4 buffer (pH 6.8).

T2 sequence (Q9N1U2 whole entry): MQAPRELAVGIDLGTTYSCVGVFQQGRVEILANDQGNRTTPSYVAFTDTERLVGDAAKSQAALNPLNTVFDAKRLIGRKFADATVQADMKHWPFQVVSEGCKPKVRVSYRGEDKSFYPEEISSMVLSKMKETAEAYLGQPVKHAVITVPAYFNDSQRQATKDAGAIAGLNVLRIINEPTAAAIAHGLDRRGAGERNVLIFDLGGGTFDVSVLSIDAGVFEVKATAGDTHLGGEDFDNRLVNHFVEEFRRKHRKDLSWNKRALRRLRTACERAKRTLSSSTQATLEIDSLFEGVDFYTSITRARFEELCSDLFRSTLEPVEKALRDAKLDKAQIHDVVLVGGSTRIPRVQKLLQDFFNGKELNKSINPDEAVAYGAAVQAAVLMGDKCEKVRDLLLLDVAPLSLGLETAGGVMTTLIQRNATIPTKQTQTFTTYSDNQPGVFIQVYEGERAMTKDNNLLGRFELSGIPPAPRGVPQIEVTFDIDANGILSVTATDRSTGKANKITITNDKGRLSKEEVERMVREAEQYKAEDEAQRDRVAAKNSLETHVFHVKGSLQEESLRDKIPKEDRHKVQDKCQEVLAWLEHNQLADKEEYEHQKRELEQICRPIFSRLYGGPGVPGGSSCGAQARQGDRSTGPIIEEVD
T1 sequence (P0DMV8 whole entry): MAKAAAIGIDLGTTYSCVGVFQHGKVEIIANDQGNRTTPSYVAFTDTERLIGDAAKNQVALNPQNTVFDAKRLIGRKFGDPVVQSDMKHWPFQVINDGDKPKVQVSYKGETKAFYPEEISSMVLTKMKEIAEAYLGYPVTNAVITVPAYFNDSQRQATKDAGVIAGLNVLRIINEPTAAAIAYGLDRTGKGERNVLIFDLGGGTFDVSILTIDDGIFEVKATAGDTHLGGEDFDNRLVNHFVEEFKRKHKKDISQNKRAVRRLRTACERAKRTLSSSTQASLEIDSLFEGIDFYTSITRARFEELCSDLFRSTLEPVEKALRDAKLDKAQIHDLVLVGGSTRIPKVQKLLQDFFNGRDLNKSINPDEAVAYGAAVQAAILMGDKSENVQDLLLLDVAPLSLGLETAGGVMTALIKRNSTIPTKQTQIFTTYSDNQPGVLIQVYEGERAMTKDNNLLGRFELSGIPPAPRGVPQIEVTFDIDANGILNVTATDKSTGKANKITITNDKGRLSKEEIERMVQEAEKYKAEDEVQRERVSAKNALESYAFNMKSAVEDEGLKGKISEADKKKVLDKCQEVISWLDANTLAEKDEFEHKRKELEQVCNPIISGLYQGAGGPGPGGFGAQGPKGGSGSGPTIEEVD

C=C1CC[C@H](O)C/C1=C/C=C1\CCC[C@]2(C)[C@@H]([C@H](C)CCCC(C)(C)O)CC[C@@H]12 [25-OHD3, 25-hydroxy vitamin D3]
25-OHD3 binding activity [1]: exhibited enhanced 25-OHD3 binding activity
specific binding activity for 25-OHD3 relative to that of 17β-estradiol (IDBP(s)): approximately 2 fold
IC (maximal displacement) ([2]; inducibly expressed hsp70, read-out: concentration of radioinert ligand required to achieve maximal displacement of [3H]25-hydroxyvitamin D3): 0.05 to 0.1 µM
25-OHD3 binding activity (IDBP [3]; Cos-7 cells transfected with IDBP coding region in pcDNA3.1): approximately 0.8 fmol/μg protein
25-OHD3 binding activity (IDBP [3]; OMK gibbon cells transfected with IDBP coding region in pcDNA3.1): approximately 1.0 fmol/μg protein
ability to competitively displace [3H]25-OHD3 binding (FIG. 1A) (IDBP [4]): roughly equivalent in their ability to competitively inhibit
IC (maximal displacement) (IDBP [4]; IDBP, read-out: concentration of radioinert ligand required to achieve maximal displacement of [3H]25-hydroxyvitamin D3): 0.05 to 0.1 µM

CC/C(=C(\c1ccccc1)c1ccc(OCCN(C)C)cc1)c1ccccc1 [Tamoxifen]
RBI (Relative Binding Index) (IDBP [4]): 0

C[C@]12CC[C@H]3[C@@H](CCC4=CC(=O)CC[C@@]43C)[C@@H]1CC[C@@H]2O [Testosterone]
competition of non-vitamin D steroids and bioactive lipids with 25-OHD3 for binding (IDBP [4]; crude post-nuclear / 100,000×g supernatant extracts of B95-8 cells): competitively displaces [^3 H]25-OHD3
RBI (Relative Binding Index) (IDBP [4]): 30

C=C1CC[C@H](O)C/C1=C/C=C1\CCC[C@]2(C)[C@@H]([C@H](C)/C=C/[C@H](C)C(C)C)CC[C@@H]12 [Vitamin D2, ergocalciferol]
RBI (Relative Binding Index) (IDBP [4]): 0

C=C1CC[C@H](O)C/C1=C/C=C1\CCC[C@]2(C)[C@@H]([C@H](C)CCCC(C)C)CC[C@@H]12 [Vltamin D3, cholecalciferol]
ability to competitively displace [3H]25-OHD3 binding (FIG. 1A) (IDBP [4]): ineffective as a competitive ligand
RBI (Relative Binding Index) (IDBP [4]): 0

Androstendiol
RBI (Relative Binding Index) (IDBP [4]): 0

[^3 H]25-hydroxy vitamin D3 [[^3 H]25-OHD3]
specific [3H]25-OHD3 binding activity of hsp70 ([2]; recombinant human inducibly-expressed hsp70): exhibited specific [^3 H]25-OHD3 binding activity
